Common to all, as to assay type: biochemical
For one assay, the target named is T1, KRAS WT (Homo sapiens, UniProt P01116).
T1 construct: Recombinant human RAS protein (2 nM); aa1-188 KRAS WT
Description: HTRF nucleotide exchange assay (NEA), KRAS WT. In a few lines:
(§1)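 Compounds are tested by displacement of a fluorescent GTP analog from His-tagged KRAS aa1-188 (4 nM G12C or G12S; 2 nM G13D or WT). The compounds are first incubated with the protein and the Eu anti-His antibody for 60 min at room temperature. EDA-GTP-DY647P1, added as a 200 nM solution, binds during a further 30 min before time-resolved fluorescence is read.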
In general terms: TR-FRET usually uses a lanthanide donor and a delayed reading to cut background.

Another assay addresses T2, KRAS G12D (Homo sapiens, UniProt P01116, G12D).
T2 construct: Recombinant human RAS protein (2 nM)
In words: HTRF nucleotide exchange assay (NEA), KRAS G12D. The following applies: recombinant human KRAS G12D aa1-188, 2 nM; lowest class = % inhibition at 10 μM. In short, it runs like this: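 Compound binding to KRAS G12D was measured by HTRF nucleotide exchange. Recombinant human KRAS G12D (aa1-188, N-terminal 6×His-tag, 2 nM) and 2 nM Europium anti-6×His antibody were combined with compound in 5 uL assay buffer in 384-well plates for 60 minutes at room temperature, then 5 ul of 200 nM EDA-GTP-DY647P1 was added for 30 minutes before time-resolved fluorescence reading.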

In the next assay the target is T3, KRAS G12C (Homo sapiens, UniProt P01116, G12C).
T3 construct: 4 nM KRAS; aa1-188 containing the G12V, G12C, G12A or G12S amino acid substitution
In words: HTRF nucleotide exchange assay (NEA), KRAS G12C. In a few lines:
as §1

In the next assay the target is T4, KRAS G13D (Homo sapiens, UniProt P01116, G13D).
T4 construct: Recombinant human RAS protein (2 nM); aa1-188 KRAS WT
In words: HTRF nucleotide exchange assay (NEA), KRAS G13D. The method, then: (§2) The capacity of compounds to bind KRAS G12D, other KRAS mutants and wildtype RAS isoforms was quantified using a HTRF nucleotide exchange assay. Recombinant human RAS protein (2 nM; aa1-188 KRAS WT, HRAS WT, NRAS WT, or KRAS containing the containing the G12D, G13D or Q61H amino acid substitutions, or 4 nM KRAS; aa1-188 containing the G12V, G12C, G12A or G12S amino acid substitution, an N-terminal 6×His-tag and leader sequence), and 2 nM Europium-labeled anti-6×His antibody were mixed in assay buffer (10 mM HEPES pH7.3, 150 mM NaCl, 5 mM MgCl2, 0.05% BSA, 0.0025% NP-40 and 100 mM KF) with various concentrations of compound in a 384-well plate and a volume of 5 uL. After a 60-minute incubation at room temperature, 5 ul of 200 nM EDA-GTP-DY647P1 (diluted in assay buffer) was added to the plate. Following 30-minute incubation at room temperature, time-resolved fluorescence was measured on a PerkinElmer Envision plate reader. DMSO (0.3%) and unlabeled […] (1 μM) or equivalent tool compound were used to generate the Max and Min assay signals, respectively. Data was analysed using a four-parameter logistic model to calculate IC50 values, with at least two independent replicates were performed for each compound.

The next assay deals with T5, KRAS Q61H (Homo sapiens, UniProt P01116, Q61H).
T5 construct: Recombinant human RAS protein (2 nM); aa1-188 KRAS WT
Description: HTRF nucleotide exchange assay (NEA), KRAS Q61H. As to the method: as §2

For a further assay, the target named is T6, KRAS G12V (Homo sapiens, UniProt P01116, G12V).
T6 construct: 4 nM KRAS; aa1-188 containing the G12V, G12C, G12A or G12S amino acid substitution
In words: HTRF nucleotide exchange assay (NEA), KRAS G12V. In a few lines:
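After a further 30 minutes at room temperature, time-resolved fluorescence was read on a PerkinElmer Envision. The buffer contained 10 mM HEPES pH7.3, 150 mM NaCl, 5 mM MgCl2, 0.05% BSA, 0.0025% NP-40 and 100 mM KF. DMSO (0.3%) gave the Max signal and unlabeled GOP (1 μM) the Min signal. IC50 came from four-parameter logistic fits of at least two independent replicates.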

Another assay deals with T7, KRAS G12A (Homo sapiens, UniProt P01116, G12A).
T7 construct: 4 nM KRAS; aa1-188 containing the G12V, G12C, G12A or G12S amino acid substitution
In words: HTRF nucleotide exchange assay (NEA), KRAS G12A. As to the method:
as §2

The next assay has as its target T8, KRAS G12S (Homo sapiens, UniProt P01116, G12S).
T8 construct: 4 nM KRAS; aa1-188 containing the G12V, G12C, G12A or G12S amino acid substitution
In words: HTRF nucleotide exchange assay (NEA), KRAS G12S. As to the method:
as §2

Setting [1] is: recombinant human KRAS G13D aa1-188, 2 nM, lowest class = % inhibition at 10 μM.

These results are taken from US20240279241A1, “PYRIDO[4,3-D]PYRIMIDINE COMPOUNDS CAPABLE OF INHIBITING KRAS MUTANT PROTEINS” (Redx Pharma PLC, priority 2021, published 2024).

Read-outs that look alike come from different tables or passages of the source.

T2 sequence (P01116 1-188 isoform P01116-2 G12D): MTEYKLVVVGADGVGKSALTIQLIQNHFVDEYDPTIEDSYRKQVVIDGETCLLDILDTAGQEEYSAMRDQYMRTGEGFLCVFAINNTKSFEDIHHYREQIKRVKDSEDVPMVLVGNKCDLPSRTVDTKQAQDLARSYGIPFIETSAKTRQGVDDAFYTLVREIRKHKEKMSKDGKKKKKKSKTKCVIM
T1 sequence (P01116 1-188 isoform P01116-2): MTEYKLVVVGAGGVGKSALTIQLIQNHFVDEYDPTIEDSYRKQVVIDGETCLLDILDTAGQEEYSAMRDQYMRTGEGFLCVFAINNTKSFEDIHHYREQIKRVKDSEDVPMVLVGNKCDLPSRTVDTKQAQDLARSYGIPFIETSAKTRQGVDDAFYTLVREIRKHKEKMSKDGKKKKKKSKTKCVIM
T8 sequence (P01116 1-188 isoform P01116-2 G12S): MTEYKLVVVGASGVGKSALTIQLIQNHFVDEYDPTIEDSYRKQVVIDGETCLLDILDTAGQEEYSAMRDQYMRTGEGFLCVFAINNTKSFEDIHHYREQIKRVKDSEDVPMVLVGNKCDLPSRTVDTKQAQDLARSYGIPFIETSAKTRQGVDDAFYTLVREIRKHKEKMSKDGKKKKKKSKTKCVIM
T3 sequence (P01116 1-188 isoform P01116-2 G12C): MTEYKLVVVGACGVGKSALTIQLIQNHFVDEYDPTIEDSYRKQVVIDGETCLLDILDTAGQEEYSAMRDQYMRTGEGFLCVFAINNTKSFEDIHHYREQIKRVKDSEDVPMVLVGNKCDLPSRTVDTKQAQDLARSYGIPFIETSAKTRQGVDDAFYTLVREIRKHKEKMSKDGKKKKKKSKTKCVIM
T6 sequence (P01116 1-188 isoform P01116-2 G12V): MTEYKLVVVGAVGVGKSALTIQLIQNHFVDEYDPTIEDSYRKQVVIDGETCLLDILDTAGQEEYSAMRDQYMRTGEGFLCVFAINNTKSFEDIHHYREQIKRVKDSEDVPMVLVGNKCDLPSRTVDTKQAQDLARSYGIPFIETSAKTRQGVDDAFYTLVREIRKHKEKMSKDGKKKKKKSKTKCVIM
T7 sequence (P01116 1-188 isoform P01116-2 G12A): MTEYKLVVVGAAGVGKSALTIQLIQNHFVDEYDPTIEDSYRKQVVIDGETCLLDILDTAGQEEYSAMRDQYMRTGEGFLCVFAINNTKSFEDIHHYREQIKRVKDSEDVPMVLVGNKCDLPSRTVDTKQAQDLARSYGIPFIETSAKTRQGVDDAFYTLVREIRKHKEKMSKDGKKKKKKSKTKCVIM
T4 sequence (P01116 1-188 isoform P01116-2 G13D): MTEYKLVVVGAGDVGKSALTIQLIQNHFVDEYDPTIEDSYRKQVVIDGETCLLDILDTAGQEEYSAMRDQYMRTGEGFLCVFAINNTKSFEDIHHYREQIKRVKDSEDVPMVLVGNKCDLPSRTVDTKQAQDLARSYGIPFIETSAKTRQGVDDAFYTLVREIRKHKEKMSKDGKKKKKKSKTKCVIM
T5 sequence (P01116 1-188 isoform P01116-2 Q61H): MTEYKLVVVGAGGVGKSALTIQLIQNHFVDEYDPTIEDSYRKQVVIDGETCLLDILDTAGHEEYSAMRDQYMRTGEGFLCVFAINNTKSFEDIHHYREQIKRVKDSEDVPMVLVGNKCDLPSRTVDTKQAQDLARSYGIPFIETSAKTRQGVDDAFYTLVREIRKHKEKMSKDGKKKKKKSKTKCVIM

Take `Oc1cc(-c2ncc3c(N4CC5CNCC5C4)nc(OCC45CCCN4CCC5)nc3c2F)c2ccccc2c1` (centres unmarked) [Example 1, 4-[4-(2,3,3a,4,6,6a-hexahydro-1H-pyrrolo[3,4-c]pyrrol-5-yl)-8-fluoro-2-(1,2,3,5,6,7-hexahydropyrrolizin-8-ylmethoxy)pyrido[4,3-d]pyrimidin-7-yl]naphthalen-2-ol]: the IC50 (in general, the concentration needed to halve the response being measured) is 0.1 to 10 µM against KRAS WT; 0.01 to 0.1 µM on KRAS G12D; 0.1 to 10 µM against KRAS G12C; 0.1 to 10 µM against KRAS G13D; 0.1 to 10 µM against KRAS Q61H; 0.1 to 10 µM at KRAS G12V.

`Oc1cc(-c2ncc3c(N4CCCSCC4)nc(OCC45CCCN4CCC5)nc3c2F)c2ccccc2c1` [Example 38, 4-[8-fluoro-2-(1,2,3,5,6,7-hexahydropyrrolizin-8-ylmethoxy)-4-(1,4-thiazepan-4-yl)pyrido[4,3-d]pyrimidin-7-yl]naphthalen-2-ol]: the IC50 was 0.01 to 0.1 µM against KRAS WT; no more than 0.01 µM against KRAS G12A; 0.01 to 0.1 µM on KRAS G12D; no more than 0.01 µM against KRAS G12C; greater than 10 µM on KRAS G13D (setting [1]); 0.01 to 0.1 µM against KRAS Q61H. For the same compound, the results for the IC50 at KRAS G12S and on KRAS G12V were 0.01 to 0.1 µM and no more than 0.01 µM, respectively.

For the compound `Oc1cc(-c2ncc3c(N4CCCC5(CCOC5)C4)nc(OCC45CCCN4CCC5)nc3c2F)c2ccccc2c1` (centres unmarked) [Example 56, 4-[8-fluoro-2-(1,2,3,5,6,7-hexahydropyrrolizin-8-ylmethoxy)-4-(2-oxa-9-azaspiro[4.5]decan-9-yl)pyrido[4,3-d]pyrimidin-7-yl]naphthalen-2-ol], the IC50 against KRAS WT is 0.1 to 10 µM; on KRAS G12A, 0.1 to 10 µM; on KRAS G12D it was 0.1 to 10 µM; on KRAS G12C it was 0.1 to 10 µM; on KRAS G13D (setting [1]), greater than 10 µM; on KRAS Q61H it was 0.1 to 10 µM. Besides, the half-maximal inhibitory concentration (IC50) at KRAS G12S and against KRAS G12V was 0.1 to 10 µM in each case.

With `Oc1cc(-c2ncc3c(N4CCC5(CCOC5)CC4)nc(OCC45CCCN4CCC5)nc3c2F)c2ccccc2c1` [Example 8, 4-[8-fluoro-2-(1,2,3,5,6,7-hexahydropyrrolizin-8-ylmethoxy)-4-(2-oxa-8-azaspiro[4.5]decan-8-yl)pyrido[4,3-d]pyrimidin-7-yl]naphthalen-2-ol], the IC50 at KRAS WT, on KRAS G12D, against KRAS G12C, against KRAS G13D, at KRAS Q61H and against KRAS G12V was 0.1 to 10 µM each time.

As for `C#Cc1c(F)ccc2cc(O)cc(-c3ncc4c(NCCCOC)nc(OC[C@@]56CCCN5C[C@H](F)C6)nc4c3F)c12` (relative stereo) [Example 85, 5-ethynyl-6-fluoro-4-[8-fluoro-2-[[trans-2-fluoro-1,2,3,5,6,7-hexahydropyrrolizin-8-yl]methoxy]-4-(3-methoxypropylamino)pyrido[4,3-d]pyrimidin-7-yl]naphthalen-2-ol], the IC50 on KRAS WT is no more than 0.01 µM; on KRAS G12A it was no more than 0.01 µM; at KRAS G12D, no more than 0.01 µM; on KRAS G12C it was no more than 0.01 µM; on KRAS G13D (setting [1]), greater than 10 µM; against KRAS Q61H, 0.01 to 0.1 µM. Moreover, the IC50 on KRAS G12S was 0.01 to 0.1 µM; against KRAS G12V it was no more than 0.01 µM.

Turning to `CC1COCCN(c2nc(OCC34CCCN3CCC4)nc3c(F)c(-c4cc(O)cc5ccccc45)ncc23)C1` (centres unmarked) [Example 19, 4-[8-fluoro-2-(1,2,3,5,6,7-hexahydropyrrolizin-8-ylmethoxy)-4-(6-methyl-1,4-oxazepan-4-yl)pyrido[4,3-d]pyrimidin-7-yl]naphthalen-2-ol], the IC50 at KRAS WT was 0.01 to 0.1 µM; at KRAS G12A, 0.01 to 0.1 µM; on KRAS G12D it was 0.01 to 0.1 µM; on KRAS G12C, 0.01 to 0.1 µM; at KRAS G13D (setting [1]), greater than 10 µM; against KRAS Q61H, 0.1 to 10 µM. Besides, the IC50 at KRAS G12S was 0.1 to 10 µM; against KRAS G12V, 0.01 to 0.1 µM.

With `Oc1cc(-c2ncc3c(N4CCCOCC4)nc(OCC45CCCN4CCC5)nc3c2F)c2ccccc2c1` [Example 3, 4-[8-fluoro-2-(1,2,3,5,6,7-hexahydropyrrolizin-8-ylmethoxy)-4-(1,4-oxazepan-4-yl)pyrido[4,3-d]pyrimidin-7-yl]naphthalen-2-ol], the IC50 at KRAS WT was 0.01 to 0.1 µM; against KRAS G12A it was no more than 0.01 µM; at KRAS G12D, no more than 0.01 µM; at KRAS G12C, no more than 0.01 µM; at KRAS G13D it was 0.1 to 10 µM; against KRAS Q61H it was 0.01 to 0.1 µM. In addition, the results for the IC50 at KRAS G12S and against KRAS G12V were 0.01 to 0.1 µM and no more than 0.01 µM, respectively.

As for `O=C1CCN(c2nc(OCC34CCCN3CCC4)nc3c(F)c(-c4cc(O)cc5ccccc45)ncc23)CCN1` [Example 13], the IC50 at KRAS WT was 0.1 to 10 µM; on KRAS G12A it was 0.1 to 10 µM; at KRAS G12D, 0.01 to 0.1 µM; on KRAS G12C, 0.1 to 10 µM; at KRAS G13D (setting [1]), greater than 10 µM; at KRAS G12S, 0.1 to 10 µM. The compound further came in with an IC50 against KRAS G12V of 0.1 to 10 µM.

In the case of `Oc1cc(-c2ncc3c(N4CCCCC4)nc(OCC45CCCN4CCC5)nc3c2F)c2ccccc2c1` [Example 34, 4-[8-fluoro-2-(1,2,3,5,6,7-hexahydropyrrolizin-8-ylmethoxy)-4-(1-piperidyl)pyrido[4,3-d]pyrimidin-7-yl]naphthalen-2-ol], the IC50 at KRAS WT is 0.01 to 0.1 µM; against KRAS G12A, 0.01 to 0.1 µM; on KRAS G12D it was 0.01 to 0.1 µM; on KRAS G12C, 0.01 to 0.1 µM; on KRAS G13D (setting [1]) it was greater than 10 µM; against KRAS G12S, 0.1 to 10 µM. On KRAS G12V, this compound had an IC50 of 0.01 to 0.1 µM.

As to `C#Cc1c(F)ccc2cc(O)cc(-c3ncc4c(N5CCCCCC5)nc(OC[C@@]56CCCN5C[C@H](F)C6)nc4c3F)c12` (relative stereo) [Example 84, 4-[4-(azepan-1-yl)-8-fluoro-2-[[trans-2-fluoro-1,2,3,5,6,7-hexahydropyrrolizin-8-yl]methoxy]pyrido[4,3-d]pyrimidin-7-yl]-5-ethynyl-6-fluoro-naphthalen-2-ol], the IC50 against KRAS WT was no more than 0.01 µM; at KRAS G12A it was no more than 0.01 µM; on KRAS G12D it was no more than 0.01 µM; against KRAS G12C, no more than 0.01 µM; at KRAS G13D, 0.1 to 10 µM; at KRAS Q61H, no more than 0.01 µM. The IC50 on KRAS G12S and on KRAS G12V was no more than 0.01 µM throughout.
